The values that follow come from patent US20250213707A1, “COMPOUND FOR INCREASING EFFICACY OF ONCOLYTIC VIRUSES” (ABLEVIA BIOTECH GMBH, priority 2022, published 2025).

Assay [1] relates to polyclonal antibody ab6982. Nature of the assay: Epitope mapping of polyclonal antibody ab6982 against cyclic peptides of Ad5 fiber and hexon (peptide array). The format is binding, rabbits. An excerpt:
Polyclonal antibody ab6982 (Abcam) was generated by immunizing rabbits with purified AdV. It reacts with all capsid proteins of Ad5 including hexon, fiber and penton. It was shown that the antibody neutralizes Ad5 infection in a bioassay at 1000 adenovirus 5 particles/ml, a 50% inactivation of the adenovirus can be achieved at a 1/25,000 dilution of the antibody. In order to identify epitopic regions that could contain peptides for ab6982 paratope binding, the antibody was mapped against the sequences of fiber (NCBI Reference Sequence: AP 000226.1) and hexon protein (GenBank: BAG48782.1). […] The binding signal of this antibody to the array yielded several peptides that were aligned and clustered against the sequence of the protein. The peptide clusters were named cluster1-7 (fiber protein) and clusters8-16 (hexon protein) according to their ranked order of cyclic peptide hits (i.e. cluster contains the strongest binders, cluster2 the second strongest etc.). Below are the aligments of the corresponding peptides that bind to polyclonal antibody ab6982.

In assay [2] the test system is IgG from human donors (anti-AAV antibodies). Kind of assay: Screen for anti-AAV antibodies in human sera, 2452 linear 15-amino-acid AAV peptides on microarrays (Table 1). The following applies: human donor IgG binding to linear 15-amino-acid AAV peptides on microarray, fluorescence; for group II: membership in deduplicated aggregate of top 25 peptide hits for each donor; for group III: membership in deduplicated aggregate of top 50 peptide hits for each donor; for group I: membership in deduplicated aggregate of top 10 peptide hits for each donor. The arrangement: key to group I: X: the deduplicated aggregate of the respective top 10 peptide hits for each donor was compiled and designated as group I; key to group II: X: the deduplicated aggregate of the respective top 25 peptide hits for each donor was compiled and designated as group II; key to group III: X: the deduplicated aggregate of the respective top 50 peptide hits for each donor was compiled and designated as group III. The class given is binding. The method, boiled down:
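Peptide hits were grouped I to IV by pooling each donor's top 10, 25, 50 or 250 background-corrected fluorescence signals, after deduplication. Signals came from donor IgG, purified on protein G, bound to arrayed 15-residue linear peptides (2452 total) spanning 16 AAV sequences.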

[3] abbreviates: cyclic peptides of fiber protein (clusters 1-7).
Where [4] appears, read: cyclic peptides of hexon protein (clusters 8-16).

In the case of MVPQYGYCGVVTGK [SEQ ID NO: 2035], the “antibody binding signal ranking from the microarray experiment” value (from here on “antibody binding signal ranking”) in assay [1] (setting [3]) is 070. For the same substance, in assay [2], the “group II” value is recorded as “X” and the “group III” value is given as “X”.

With MASHKDDEEKFFPM [SEQ ID NO: 1989], the “antibody binding signal ranking” value in assay [1] (setting [3]) was 002. In addition, in assay [2], the “group I” value is “X”, the “group II” value was “X” and the “group III” value is on record as “X”.

Turning to “KGEPVNEADAAALE (REGION 1..14: note = peptide derived from viral capsid protein) [SEQ ID NO: 2003]”, in assay [1] (setting [3]), the “antibody binding signal ranking” value worked out at 153. In assay [2], the “group II” value is “X” and the “group III” value was “X”.

Consider “EGADGVGNASGNWH (REGION 1..14: note = peptide derived from viral capsid protein) [SEQ ID NO: 2046]”, for which the “antibody binding signal ranking” value in assay [1] (setting [3]) was 169. Further, in assay [2], the “group II” value was “X” and the “group III” value is reported as “X”.

Regarding “EEEIKTTNPVATES (REGION 1..14: note = peptide derived from viral capsid protein) [SEQ ID NO: 2014]”, in assay [1] (setting [3]), the “antibody binding signal ranking” value is recorded as 123. Besides, in assay [2], the “group II” value is “X” and the “group III” value was “X”.

With HSQSLDRLMNPLLD [SEQ ID NO: 2051], the “antibody binding signal ranking” value in assay [1] (setting [3]) came to 008. In assay [2], the “group II” value was “X” and the “group III” value is listed as “X”.

PYLRYHADAEFQER [SEQ ID NO: 2013]: the “antibody binding signal ranking” value in assay [1] (setting [3]) turned out to be 118. Also, in assay [2], the “group II” value is “X” and the “group III” value is “X”.

Regarding NLQAANLALGETTR [SEQ ID NO: 2020], in assay [1] (setting [3]), the “antibody binding signal ranking” value is recorded as 016. Besides, in assay [2], the “group II” value was “X” and the “group III” value is listed as “X”.

For “NNFQFSYTFEDVPF (REGION 1..14: note = peptide derived from viral capsid protein) [SEQ ID NO: 1990]”, the “antibody binding signal ranking” value in assay [1] (setting [3]) amounted to 003. In assay [2], the “group I” value is “X”, the “group II” value is listed as “X” and the “group III” value is listed as “X”.

As to AGDNVDYSSVMLTS [SEQ ID NO: 2010], the “antibody binding signal ranking” value in assay [1] (setting [3]) was 065. Moreover, in assay [2], the “group II” value is given as “X” and the “group III” value is given as “X”.

Consider “EFAWPGASSWALNG (REGION 1..14: note = peptide derived from viral capsid protein) [SEQ ID NO: 2015]”, for which, in assay [1] (setting [3]), the “antibody binding signal ranking” value was found to be 126. Moreover, in assay [2], the “group II” value is “X” and the “group III” value is reported as “X”.

Turning to TVQVFTDSDYQLPY [SEQ ID NO: 2019], the “antibody binding signal ranking” value in assay [1] (setting [3]) is recorded as 013. In assay [2], the “group II” value was “X” and the “group III” value was “X”.

Regarding “HKDDEEKFFPQSGV (REGION 1..14: note = peptide derived from viral capsid protein) [SEQ ID NO: 2002]”, the “antibody binding signal ranking” value in assay [1] (setting [3]) is on record as 150. In assay [2], the “group II” value is “X” and the “group III” value is on record as “X”.

Regarding “NEADAAALEHDKAY (REGION 1..14: note = peptide derived from viral capsid protein) [SEQ ID NO: 2004]”, in assay [1] (setting [3]), the “antibody binding signal ranking” value is on record as 163. Further, in assay [2], the “group II” value is given as “X” and the “group III” value is “X”.

Take YNLQEIVPGSVWME [SEQ ID NO: 2063]: in assay [1] (setting [3]), the “antibody binding signal ranking” value came to 143. Further, in assay [2], the “group II” value was “X” and the “group III” value is “X”.

For the substance “TVQIFADSSYELPY (REGION 1..14: note = peptide derived from viral capsid protein) [SEQ ID NO: 2043]”, the “antibody binding signal ranking” value in assay [1] (setting [3]) is reported as 136. In assay [2], the “group II” value is “X” and the “group III” value was “X”.

GQTGESESVPDPQP [SEQ ID NO: 2059]: the “antibody binding signal ranking” value in assay [1] (setting [3]) stood at 095. In addition, in assay [2], the “group II” value was “X” and the “group III” value is recorded as “X”.

On to EYRTTRPIGTRYLT [SEQ ID NO: 2062], for which the “antibody binding signal ranking” value in assay [1] (setting [3]) stood at 134. Moreover, in assay [2], the “group II” value was “X” and the “group III” value is “X”.

For “LFNIQVKEVTTNDG (REGION 1..14: note = peptide derived from viral capsid protein) [SEQ ID NO: 2047]”, the “antibody binding signal ranking” value in assay [1] (setting [3]) worked out at 172. For the same substance, in assay [2], the “group II” value is listed as “X” and the “group III” value is recorded as “X”.

ANPGIAMATHKDDE [SEQ ID NO: 2060]: the “antibody binding signal ranking” value in assay [1] (setting [3]) stood at 100. Besides, in assay [2], the “group II” value is recorded as “X” and the “group III” value was “X”.

As for SQSLDRLMNPLLDQ [SEQ ID NO: 2054], the “antibody binding signal ranking” value in assay [1] (setting [3]) stood at 028. In addition, in assay [2], the “group II” value is “X” and the “group III” value is listed as “X”.

Take FSAARINSFLTQYS [SEQ ID NO: 2032]: in assay [1] (setting [3]), the “antibody binding signal ranking” value is recorded as 059. In assay [2], the “group II” value is “X” and the “group III” value is on record as “X”.

For the substance “SNYNKSVNVDFTVD (REGION 1..14: note = peptide derived from viral capsid protein) [SEQ ID NO: 1996]”, the “antibody binding signal ranking” value in assay [1] (setting [3]) is listed as 040. In assay [2], the “group I” value is on record as “X”, the “group II” value is given as “X” and the “group III” value is recorded as “X”.

For MATNNQSLALGETT [SEQ ID NO: 2022], in assay [1] (setting [3]), the “antibody binding signal ranking” value is reported as 021. Moreover, in assay [2], the “group II” value is given as “X” and the “group III” value was “X”.

Regarding MNPGPAMASHKEGE [SEQ ID NO: 2017], in assay [1] (setting [3]), the “antibody binding signal ranking” value came to 011. For the same substance, in assay [2], the “group II” value is given as “X” and the “group III” value is “X”.

For KKRILEPLGLVEEG [SEQ ID NO: 2034], the “antibody binding signal ranking” value in assay [1] (setting [3]) was found to be 066. In addition, in assay [2], the “group II” value is listed as “X” and the “group III” value is given as “X”.

PVDQSPQEPDSSSG [SEQ ID NO: 1991]: the “antibody binding signal ranking” value in assay [1] (setting [3]) is reported as 005. In assay [2], the “group I” value is given as “X”, the “group II” value was “X” and the “group III” value is on record as “X”.

Regarding 207 (EIFATSSYTFSYI) [compound 207], the “antibody binding signal ranking” value in assay [1] (setting [3]) was determined as 200.

221 (ATALEINLEE) [compound 221]: in assay [1] (setting [4]), the “antibody binding signal ranking” value is recorded as 19.

On to 261 (WDEAATALEINLE) [compound 261], for which the “antibody binding signal ranking” value in assay [1] (setting [4]) worked out at 042.

For the substance 302 (GDRTRYFSMW) [compound 302], the “antibody binding signal ranking” value in assay [1] (setting [4]) amounted to 101.

Consider 186 (NNSFLDPEYW) [compound 186], for which the “antibody binding signal ranking” value in assay [1] (setting [3]) is recorded as 068.

As for 240 (DDDNEDEVDEQAE) [compound 240], in assay [1] (setting [4]), the “antibody binding signal ranking” value amounted to 037.

For 305 (NYNIGYQGFY) [compound 305], the “antibody binding signal ranking” value in assay [1] (setting [4]) amounted to 106.

With 277 (DIETPDTHIS) [compound 277], the “antibody binding signal ranking” value in assay [1] (setting [4]) came out at 055.

Regarding 200 (ATSSYTFSYI) [compound 200], the “antibody binding signal ranking” value in assay [1] (setting [3]) was found to be 097.
